Experimental data from PubChem BioAssay AID2060603 (Molecular Pharmacology Branch, DTP, NCI, 2025).
Several values for one entry are separate records, joined by “and”; a condition that tells them apart may be missing. Identical values can stand only once.

System: 422866-222-R5-J1-PDC spheroid viability
Experiment: Anticancer human tumor 422866-222-R5-J1-PDC patient-derived pancreatic adenocarcinoma cell line growth inhibition [CLK]
Details: spheroids with HUVEC and MSC; for viability, T/C: stronger effect = lower value
Procedure, shortened: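 Patient-derived tumor cells grown as complex spheroids with HUVEC endothelial cells and mesenchymal stem cells, treated with drug combinations. Concentrations descend in half-log steps from near clinical Cmax, or from 10 microM if Cmax unknown.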

[1] = curve of first compound, second compound 0.0316 µM
[2] = curve of first compound, second compound 0.1 µM
[3] = curve of first compound, second compound 0.316 µM
[4] = curve of first compound, second compound 1 µM
[5] = curve of first compound, second compound 3.16 µM
[6] = curve of first compound, second compound 10 µM
[7] = second compound 0.0316 µM, first compound 0.0316 µM
[8] = second compound 0.0316 µM, first compound 0.1 µM
[9] = second compound 0.0316 µM, first compound 0.316 µM
[10] = second compound 0.0316 µM, first compound 1 µM
[11] = second compound 0.0316 µM, first compound 3.16 µM
[12] = second compound 0.0316 µM, first compound 10 µM
[13] = second compound 0.1 µM, first compound 0.0316 µM
[14] = second compound 0.1 µM, first compound 0.1 µM
[15] = second compound 0.1 µM, first compound 0.316 µM
[16] = second compound 0.1 µM, first compound 1 µM
[17] = second compound 0.1 µM, first compound 3.16 µM
[18] = second compound 0.1 µM, first compound 10 µM
[19] = second compound 0.316 µM, first compound 0.0316 µM
[20] = second compound 0.316 µM, first compound 0.1 µM
[21] = second compound 0.316 µM, first compound 0.316 µM
[22] = second compound 0.316 µM, first compound 1 µM
[23] = second compound 0.316 µM, first compound 3.16 µM
[24] = second compound 0.316 µM, first compound 10 µM
[25] = second compound 1 µM, first compound 0.0316 µM
[26] = second compound 1 µM, first compound 0.1 µM
[27] = second compound 1 µM, first compound 0.316 µM
[28] = second compound 1 µM, first compound 1 µM
[29] = second compound 1 µM, first compound 3.16 µM
[30] = second compound 1 µM, first compound 10 µM
[31] = second compound 3.16 µM, first compound 0.0316 µM
[32] = second compound 3.16 µM, first compound 0.1 µM
[33] = second compound 3.16 µM, first compound 0.316 µM
[34] = second compound 3.16 µM, first compound 1 µM
[35] = second compound 3.16 µM, first compound 3.16 µM
[36] = second compound 3.16 µM, first compound 10 µM
[37] = second compound 10 µM, first compound 0.0316 µM
[38] = second compound 10 µM, first compound 0.1 µM
[39] = second compound 10 µM, first compound 0.316 µM
[40] = second compound 10 µM, first compound 1 µM
[41] = second compound 10 µM, first compound 3.16 µM
[42] = second compound 10 µM, first compound 10 µM
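Note: spheroids exposed to agents for seven days before readout.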

**Q.** What does the source list for O=C(c1cc(Cc2n[nH]c(=O)c3ccccc23)ccc1F)N1CCN(C(=O)C2CC2)CC1 + CNC(=O)c1ccc(Nc2nc(OC3CCCC3)c3c(-c4ccc5nc(C)oc5c4)c[nH]c3n2)c(OC)c1?
**A.** IC50 [1]: > 10000 nM; IC50 [2]: > 10000 nM; IC50 [3]: > 10000 nM; IC50 [4]: > 10000 nM; IC50 [5]: > 10000 nM; IC50 [6]: > 10000 nM; viability, T/C [7]: 103%; viability, T/C [8]: 104%; viability, T/C [9]: 112%; viability, T/C [10]: 110%; viability, T/C [11]: 90.6%; viability, T/C [12]: 90.2%; viability, T/C [13]: 111%; viability, T/C [14]: 110%; viability, T/C [15]: 108%; viability, T/C [16]: 110%; viability, T/C [17]: 91.9%; viability, T/C [18]: 72%; viability, T/C [19]: 85.2%; viability, T/C [20]: 84.7%; viability, T/C [21]: 77.2%; viability, T/C [22]: 71.2%; viability, T/C [23]: 76.1%; viability, T/C [24]: 60.6%; viability, T/C [25]: 71.3%; viability, T/C [26]: 63.9%; viability, T/C [27]: 64%; viability, T/C [28]: 52.1%; viability, T/C [29]: 71.3%; viability, T/C [30]: 65.7%; viability, T/C [31]: 68%; viability, T/C [32]: 85.8%; viability, T/C [33]: 68.1%; viability, T/C [34]: 66.9%; viability, T/C [35]: 57.8%; viability, T/C [36]: 59.2%; viability, T/C [37]: 66.1%; viability, T/C [38]: 75.8%; viability, T/C [39]: 58.3%; viability, T/C [40]: 62.1%; viability, T/C [41]: 62.4%; viability, T/C [42]: 51.8%

**Q.** For CCCS(=O)(=O)Nc1ccc(F)c(C(=O)c2c[nH]c3ncc(-c4ccc(Cl)cc4)cc23)c1F + CN1CCN(c2cc(C(=O)Nc3cc4cc(-c5cnn(C)c5)ccc4cn3)ccn2)CC1, which IC50 [1] is on record?
**A.** The IC50 was > 10000 nM.

**Q.** And the IC50 [2]?
**A.** Its IC50 is > 10000 nM.

**Q.** And the IC50 [3]?
**A.** Its IC50 is > 10000 nM.

**Q.** And the IC50 [4]?
**A.** Its IC50 is < 31.6 nM.

**Q.** And the IC50 [5]?
**A.** Its IC50 is < 31.6 nM.

**Q.** And the IC50 [6]?
**A.** Its IC50 is < 31.6 nM.

**Q.** And the viability, T/C [7]?
**A.** Its viability, T/C is 111%.

**Q.** And the viability, T/C [8]?
**A.** The viability, T/C was 113%.

**Q.** What about the viability, T/C [9] of the same molecule?
**A.** Its viability, T/C is 136%.

**Q.** And the viability, T/C [10]?
**A.** Its viability, T/C is 161%.

**Q.** And the viability, T/C [11]?
**A.** Its viability, T/C is 179%.

**Q.** And the viability, T/C [12]?
**A.** The viability, T/C was 150%.

**Q.** And the viability, T/C [13]?
**A.** The viability, T/C was 108%.

**Q.** And the viability, T/C [14]?
**A.** Its viability, T/C is 124%.

**Q.** What about the viability, T/C [15] of the same molecule?
**A.** Its viability, T/C is 137%.

**Q.** What about the viability, T/C [16] of the same molecule?
**A.** Its viability, T/C is 134%.

**Q.** What about the viability, T/C [17] of the same molecule?
**A.** Its viability, T/C is 168%.

**Q.** What about the viability, T/C [18] of the same molecule?
**A.** Its viability, T/C is 138%.

**Q.** What about the viability, T/C [19] of the same molecule?
**A.** Its viability, T/C is 95.9%.

**Q.** And the viability, T/C [20]?
**A.** Its viability, T/C is 102%.

**Q.** What about the viability, T/C [21] of the same molecule?
**A.** Its viability, T/C is 98%.

**Q.** And the viability, T/C [22]?
**A.** The viability, T/C was 109%.

**Q.** And the viability, T/C [23]?
**A.** Its viability, T/C is 133%.

**Q.** What about the viability, T/C [24] of the same molecule?
**A.** The viability, T/C was 99.5%.

**Q.** What about the viability, T/C [25] of the same molecule?
**A.** Its viability, T/C is 31.4%.

**Q.** What about the viability, T/C [26] of the same molecule?
**A.** Its viability, T/C is 30.9%.

**Q.** What about the viability, T/C [27] of the same molecule?
**A.** The viability, T/C was 32%.

**Q.** And the viability, T/C [28]?
**A.** Its viability, T/C is 27.8%.

**Q.** And the viability, T/C [29]?
**A.** Its viability, T/C is 31.4%.

**Q.** And the viability, T/C [30]?
**A.** The viability, T/C was 23.5%.

**Q.** And the viability, T/C [31]?
**A.** The viability, T/C was 8.19%.

**Q.** And the viability, T/C [32]?
**A.** Its viability, T/C is 9.62%.

**Q.** What about the viability, T/C [33] of the same molecule?
**A.** Its viability, T/C is 11.2%.

**Q.** What about the viability, T/C [34] of the same molecule?
**A.** The viability, T/C was 12.2%.

**Q.** And the viability, T/C [35]?
**A.** The viability, T/C was 16.5%.

**Q.** And the viability, T/C [36]?
**A.** Its viability, T/C is 16.1%.

**Q.** And the viability, T/C [37]?
**A.** The viability, T/C was 1.72%.

**Q.** And the viability, T/C [38]?
**A.** The viability, T/C was 2.24%.

**Q.** And the viability, T/C [39]?
**A.** Its viability, T/C is 2.24%.

**Q.** What about the viability, T/C [40] of the same molecule?
**A.** Its viability, T/C is 2.75%.

**Q.** And the viability, T/C [41]?
**A.** The viability, T/C was 2.94%.

**Q.** And the viability, T/C [42]?
**A.** Its viability, T/C is 0.92%.

**Q.** What does the source list for Nc1ccn(C2OC(CO)C(O)C2(F)F)c(=O)n1 (stereo not given) + CN1CCN(c2cc(C(=O)Nc3cc4cc(-c5cnn(C)c5)ccc4cn3)ccn2)CC1?
**A.** IC50 [1]: 74.3 nM; IC50 [2]: 84.6 nM; IC50 [3]: 156 nM; IC50 [4]: < 31.6 nM; IC50 [5]: < 31.6 nM; IC50 [6]: < 31.6 nM; viability, T/C [7]: 62.9%; viability, T/C [8]: 46.5%; viability, T/C [9]: 37.8%; viability, T/C [10]: 42%; viability, T/C [11]: 40.3%; viability, T/C [12]: 38.1%; viability, T/C [13]: 74.4%; viability, T/C [14]: 44.9%; viability, T/C [15]: 57.2%; viability, T/C [16]: 45.2%; viability, T/C [17]: 38.7%; viability, T/C [18]: 37.5%; viability, T/C [19]: 66.9%; viability, T/C [20]: 50.9%; viability, T/C [21]: 46.9%; viability, T/C [22]: 55.9%; viability, T/C [23]: 45.6%; viability, T/C [24]: 46%; viability, T/C [25]: 25.9%; viability, T/C [26]: 20.6%; viability, T/C [27]: 21.3%; viability, T/C [28]: 16.7%; viability, T/C [29]: 19.1%; viability, T/C [30]: 14.9%; viability, T/C [31]: 8.63%; viability, T/C [32]: 8.77%; viability, T/C [33]: 10.5%; viability, T/C [34]: 9.38%; viability, T/C [35]: 10.2%; viability, T/C [36]: 10.9%; viability, T/C [37]: 1.24%; viability, T/C [38]: 1.59%; viability, T/C [39]: 1.16%; viability, T/C [40]: 1.57%; viability, T/C [41]: 4.23%; viability, T/C [42]: 3.93%

**Q.** With O=c1[nH]cc(F)c(=O)[nH]1 as the molecule, how does the viability, T/C (compound 0.0316 µM) read?
**A.** Its viability, T/C is 101% and 102%.

**Q.** And the viability, T/C (compound 0.1 µM)?
**A.** The viability, T/C was 95.5% and 95.8%.

**Q.** What about the viability, T/C (compound 0.316 µM) of the same molecule?
**A.** Its viability, T/C is 91.1% and 85.6%.

**Q.** And the viability, T/C (compound 1 µM)?
**A.** Its viability, T/C is 98% and 85.2%.

**Q.** What about the viability, T/C (compound 3.16 µM) of the same molecule?
**A.** Its viability, T/C is 65.5% and 77.1%.

**Q.** And the viability, T/C (compound 10 µM)?
**A.** Its viability, T/C is 90.2% and 74.7%.

**Q.** And the IC50 (curve of compound)?
**A.** Its IC50 is > 10000 nM.

**Q.** How did the viability, T/C (compound 0.0316 µM) turn out when CC(=O)O[C@H]1C(=O)[C@@]2(C)[C@H]([C@H](OC(=O)c3ccccc3)[C@]3(O)C[C@H](OC(=O)[C@H](O)[C@@H](NC(=O)c4ccccc4)c4ccccc4)C(C)=C1C3(C)C)[C@]1(OC(C)=O)CO[C@@H]1C[C@@H]2O was run?
**A.** Its viability, T/C is 68% and 69.8%.

**Q.** What about the viability, T/C (compound 0.1 µM) of the same molecule?
**A.** Its viability, T/C is 69.3% and 72.6%.

**Q.** What about the viability, T/C (compound 0.316 µM) of the same molecule?
**A.** Its viability, T/C is 63.8% and 66.3%.

**Q.** And the viability, T/C (compound 1 µM)?
**A.** Its viability, T/C is 68.3% and 75.5%.

**Q.** And the viability, T/C (compound 3.16 µM)?
**A.** Its viability, T/C is 72.2% and 76%.

**Q.** What about the viability, T/C (compound 10 µM) of the same molecule?
**A.** The viability, T/C was 85.7% and 81.6%.

**Q.** What about the IC50 (curve of compound) of the same molecule?
**A.** Its IC50 is > 10000 nM.
